Experimental findings from patent US6008247A, “2,4-bis[(4-amidino)phenyl]furans as anti-Pneumocystis carinii agents” (The University of North Carolina at Chapel Hill, priority 1998, dated 1999) are described below.

Counter-ions that a name gives are not always drawn.

Data set [1] has as its system DNA duplex polymer poly(dA-dT). Kind of data set: Thermal melting, interaction with the DNA duplex polymer poly(dA-dT). It counts as binding. From the text: (§1) Table 2 contains thermal melting results from evaluation of the interaction of compounds 3, 5 and 7 with the DNA duplex polymer poly(dA-dT). In order to rank the relative binding affinities for interactions with DNA, the duplex oligomer d(CGCGAATTCGCG)2 (A2 T2) was employed. […] The increase in melting temperature on complex formation with the furan dications are related to the binding affinities of these molecules with nucleic acid. This enhanced DNA affinity of the N-alkyl substituted amidines is though to the in large part due to additional non-bonded interactions between the alkyl groups and the walls of the minor groove.
^a) Increase in thermal melting of polyA-- polyT, see Boykin, […]

Data set [2] is described as follows: Toxicity in the immunosuppressed rat model of Pneumocystis carinii pneumonia. In kind it is in vivo. The conditions noted are these: iv. From the text:
Data obtained with pentamidine, a compound currently used clinically for treatment of PCP, are included for comparison.
^c) Evluation of iv dosage of the furon dicatons against P. carinii i
rats as descibed in Boykin, supra.

The subject of data set [3] is duplex oligomer d(CGCGAATTCGCG)2 (A2 T2). Kind of data set: Thermal melting with the duplex oligomer, ranking of relative DNA binding affinities. The conditions noted are these: duplex oligomer A2T2.
From the text: as §1
^b) Increase in thermal melting of the oligomer […], see

Data set [4] has as its system Pneumocystis carinii. In words: In vivo evaluation on intravenous administration against P. carinii in the immunosuppressed rat model. The settings on record: saline = 100.0.

As to `N=C(N)c1ccc(-c2coc(-c3ccc(C(=N)N)cc3)c2)cc1` [Compound 1, 2,4-Bis[4-{(amidino)pnehyl}]furan], the “ΔTm (DNA), increase in thermal melting of polyA-polyT” value (“ΔTm (DNA), increase” for short) in data set [1] is reported as 19.0. This molecule showed a Toxicity in data set [2] (10.0 umol/kg/d) of 0. In data set [3], the “ΔTM (oligomer), increase in thermal melting of the oligomer” value (from here on “ΔTM (oligomer), increase”) was 9.1. The Cysts/g lung in data set [4] (10.0 umol/kg/d) was 0.44 % of control.
With `CC(C)NC(=N)c1ccc(-c2coc(-c3ccc(C(=N)NC(C)C)cc3)c2)cc1` [Compound 2, 2,4-Bis[4-{N-(i-propylamidino)phenyl}]furan], in data set [1], the “ΔTm (DNA), increase” value turned out to be 17.6. The Toxicity in data set [2] (0.25 umol/kg/d), in data set [2] (1.0 umol/kg/d), in data set [2] (5.0 umol/kg/d) and in data set [2] (10.0 umol/kg/d) was 0 throughout. Further, the “ΔTM (oligomer), increase” value in data set [3] is 10.9. For the same molecule, the Cysts/g lung in data set [4] (0.25 umol/kg/d) was 38.20 % of control; in data set [4] (1.0 umol/kg/d), 0.84 % of control; in data set [4] (5.0 umol/kg/d) it was 0.0003 % of control; in data set [4] (10.0 umol/kg/d), 0.03 % of control.
Consider `CC(C)CNC(=N)c1ccc(-c2coc(-c3ccc(C(=N)NCC(C)C)cc3)c2)cc1` [Compound 3, 2-,4-Bis[4-{-(i-butylamidino)phenyl}]furan], for which the “ΔTm (DNA), increase” value in data set [1] stood at 20.4. For the same molecule, the “ΔTM (oligomer), increase” value in data set [3] is on record as 9.3.
Take `N=C(NC1CCCC1)c1ccc(-c2coc(-c3ccc(C(=N)NC4CCCC4)cc3)c2)cc1` [Compound 4, 2,4-Bis[4-{N-(cyelopentylamidino)phenyl}]furan]: the “ΔTm (DNA), increase” value in data set [1] is 20.4. The Toxicity in data set [2] (10.0 umol/kg/d) was 0. Moreover, in data set [3], the “ΔTM (oligomer), increase” value worked out at 13.6. For the same molecule, the values for the Cysts/g lung in data set [4] (1.0 umol/kg/d) and in data set [4] (10.0 umol/kg/d) were 3.21 % of control and 0.06 % of control, respectively.
In the case of `c1cc(-c2coc(-c3ccc(C4=NCCN4)cc3)c2)ccc1C1=NCCN1` [Compound 5, 2,4-Bis[4,5-dihydro-1H-imidazol-2-yl)phenyl]furan Dihydrochloride], in data set [1], the “ΔTm (DNA), increase” value is 16.8. In addition, the “ΔTM (oligomer), increase” value in data set [3] is reported as 7.2.
On to `N=C(N)c1ccc(OCCCCCOc2ccc(C(=N)N)cc2)cc1` [pentamidine, reference compound], for which the Cysts/g lung in data set [4] (22.0 umol/kg/d) is listed as 1.46 % of control.
